Key:
PINCH = target: T1, PINCH (Mus musculus, UniProt Q99JW4); test: phage display ELISA confirmation and coimmunoprecipitation with PINCH; assay type: binding
T1 construct: myc or FLAG (co-immunoprecipitation only); made in house; host or cells: T7 phage amplified in E. coli BLT5615 (ELISA); Cos and 10T1/2 cells transfected (co-IP)
Text: To investigate the potential mechanisms through which thymosin β4 might be influencing cell migration and survival events, thymosin β4 interacting proteins were searched. The amino-terminus of […] was fused with affi-gel beads resulting in exposure of the carboxy-terminus that allowed identification of previously unknown interacting proteins but prohibited association with actin. An E9.5-12.5 mouse heart T7 phage cDNA library was synthesized and screened by phage display and thymosin β4-interacting clones were enriched and confirmed by ELISA. PINCH, a LIM domain protein, was most consistently isolated in this screen and interacted with thymosin β4 in the absence of actin (ELISA). PINCH and integrin linked kinase (ILK) interact directly with one another and indirectly with the actin cytoskeleton as part of a larger complex involved in cell-extracellular matrix interactions known as the focal adhesion complex. PINCH and ILK are required for cell motility and for cell survival, in part by promoting phosphorylation of the serine-threonine kinase Akt/protein kinase B, a central kinase in survival and growth signaling pathways. […] The PINCH interaction with thymosin β4 mapped to the fourth and fifth LIM domains of PINCH while the amino terminal ankryin domain of ILK was sufficient for thymosin β4 interaction. […]

ILK and Akt = test: western blot of heart lysates after coronary ligation; assay type: in vivo, mice
Procedure: Because thymosin β4 upregulates ILK activity and Akt phosphorylation in cultured cells, the effects on these kinases in vivo were tested. […] Total Akt protein was not increased.
Myocardial infarction was produced in fifty-eight male C57BL/6J mice at 16 weeks of age (25-30 g) by ligation of the left anterior descending coronary artery as previously described. Twenty-nine of the ligated mice received thymosin β4 treatment immediately following ligation and the remaining twenty-nine received PBS injections. Treatment was given intracardiac with thymosin β4 (200 ng in 10 ul collagen) or with 10 ul of collagen; intraperitoneally with thymosin β4 (150 μg in 300 μl PBS) or with […]; or by both intracardiac and intraperitoneal injections. Intraperitoneal injections were given every three days until mice were sacrificed. Doses were based on previous studies of thymosin β4 biodistribution. Hearts were removed, weighed and fixed for histologic sectioning. Additional mice were operated on in a similar fashion for studies 0.5, 1, 3, 6 and 11 days after ligation.

ILK = ILK localization, expression and activation (immunocytochemistry, Western); assay type: cell-based
Procedure: Because recruitment of ILK to the focal adhesion complex is important for its activation, the effects of thymosin β4 on ILK localization and expression were assayed. […] Because thymosin β4 sequesters the pool of G-actin monomers, the effects on ILK activation were dependent on thymosin β4's role in regulating the balance between polymerized F-actin and monomeric G-actin were tested. F-actin polymerization was inhibited using C3 transferase and also F-actin formation was promoted with an activated Rho, but neither intervention affected the ILK activation observed after treatment of COS1 or C2C 12 cells with thymosin β4.

[1] = test system: cardiac endothelial cells; test: collagen gel assay, transformation of cardiac endothelial cells to mesenchymal cells; assay type: cell-based; conditions: Tβ4 at physiological concentrations
Procedure: Synthetic Tβ4 and an antibody to Tβ4 was provided by RegeneRx Biopharmaceuticals, Inc. (3 Bethesda Metro Center, Suite 700, Bethesda, Md. 20814) and were tested in a collagen gel assay to determine their effects on the Transformation of cardiac endothelial cells to mesenchymal cells. It is well established that development of heart valves and other cardiac tissue are formed by epithelial-mesenchymal transformation and that defects in this process can cause serious cardiovascular malformation and injury during development and throughout life. […] Transformation of atrioventricular endocardium into invasive mesenchyme is an aspect of the formation and maintenance of normal cardiac tissue and in the formation of heart valves.
Synthetic Tβ4 and an antibody to Tβ4 was provided by RegeneRx Biopharmaceuticals, Inc. (3 Bethesda Metro Center, Suite 700, Bethesda, Md. 20814) and were tested in a collagen gel assay to determine their effects on the Transformation of cardiac endothelial cells to mesenchymal cells. It is well established that development of heart valves and other cardiac tissue are formed by epithelial-mesenchymal transformation and that defects in this process can cause serious cardiovascular malformation and injury during development and throughout life. […]

T1 sequence (Q99JW4 whole entry): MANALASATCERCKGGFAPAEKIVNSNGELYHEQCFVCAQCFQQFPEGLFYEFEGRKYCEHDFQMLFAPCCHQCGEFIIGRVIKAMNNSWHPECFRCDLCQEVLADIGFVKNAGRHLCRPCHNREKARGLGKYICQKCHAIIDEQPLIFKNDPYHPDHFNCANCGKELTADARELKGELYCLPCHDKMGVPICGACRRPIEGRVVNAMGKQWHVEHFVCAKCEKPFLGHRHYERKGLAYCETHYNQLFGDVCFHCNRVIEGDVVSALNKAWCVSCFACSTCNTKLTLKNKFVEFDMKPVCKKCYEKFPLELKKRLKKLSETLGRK

thymosin β4
interaction with PINCH in the absence of actin (ELISA) (PINCH; phage display clones, ELISA): interacted | co-precipitation with PINCH (PINCH; plasmids transfected in cultured cells): co-precipitated | total Akt protein (ILK and Akt): not increased | level of ILK protein in heart lysates (ILK and Akt; compared with PBS treated mice): increased | amount of phosphorylated Akt-5473 (ILK and Akt; phospho-specific antibodies): elevation | ILK protein levels by Western analysis (ILK; C2C12 cells): modest increase | total Akt protein (ILK; C2C12 cells): unchanged | phosphorylation of Akt (serine 473) (ILK; C2C12 cells, phospho-specific antibody): increased phosphorylation | ILK detection by immunocytochemistry around the cell edges (ILK; embryonic heart explants or C2C12 myoblasts, synthetic thymosin β4 10 ng/100 ul or expressing plasmid): markedly enhanced | transformation of endocardial cells to mesenchymal cells [1]: markedly enhances

From patent US20090169538A1, “Methods of Treating or Preventing Tissue Damage Caused by Increased Blood Flow” (REGENERX BIOPHARMACEUTICALS, INC., priority 2006, published 2009)
